Tests used:
Format in all cases: biochemical
Btk = Btk (Homo sapiens, UniProt Q06187); experiment: Btk kinase activity, TR-FRET assay; settings: read-out: Btk (IC50)
How it was run: (§1)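 Enzyme (Btk 0.5 nM; Lck 6 nM) reacted 1 h with inhibitor, ATP at Km and biotin-peptide substrate in pH 7.4 buffer, 10% DMSO. Phosphopeptide detected by Eu-p-Tyr100 antibody plus streptavidin-APC (665/615 nm). IC50 calculated from fitted Ki(app) via ATP/Km correction plus half total enzyme.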

Lck = Lck (Homo sapiens, UniProt P06239); experiment: Lck kinase activity, TR-FRET assay; settings: read-out: LCK (IC50)
How it was run: as §1

EGFR = EGFR (Homo sapiens, UniProt P00533); experiment: Inhibition of a panel of kinases, in vitro HotSpot kinase assay: EGFR
Procedure: (§2) The degree of inhibition of a panel of kinases is determined using the in vitro HotSpot kinase assay (purified enzymes, ^33P-ATP, an appropriate substrate and 1 uM ATP).

JAK3 = molecular target: T1, JAK3 (Homo sapiens, UniProt P52333); experiment: Inhibition of a panel of kinases, in vitro HotSpot kinase assay: JAK3
T1 sequence (P52333 1-1124): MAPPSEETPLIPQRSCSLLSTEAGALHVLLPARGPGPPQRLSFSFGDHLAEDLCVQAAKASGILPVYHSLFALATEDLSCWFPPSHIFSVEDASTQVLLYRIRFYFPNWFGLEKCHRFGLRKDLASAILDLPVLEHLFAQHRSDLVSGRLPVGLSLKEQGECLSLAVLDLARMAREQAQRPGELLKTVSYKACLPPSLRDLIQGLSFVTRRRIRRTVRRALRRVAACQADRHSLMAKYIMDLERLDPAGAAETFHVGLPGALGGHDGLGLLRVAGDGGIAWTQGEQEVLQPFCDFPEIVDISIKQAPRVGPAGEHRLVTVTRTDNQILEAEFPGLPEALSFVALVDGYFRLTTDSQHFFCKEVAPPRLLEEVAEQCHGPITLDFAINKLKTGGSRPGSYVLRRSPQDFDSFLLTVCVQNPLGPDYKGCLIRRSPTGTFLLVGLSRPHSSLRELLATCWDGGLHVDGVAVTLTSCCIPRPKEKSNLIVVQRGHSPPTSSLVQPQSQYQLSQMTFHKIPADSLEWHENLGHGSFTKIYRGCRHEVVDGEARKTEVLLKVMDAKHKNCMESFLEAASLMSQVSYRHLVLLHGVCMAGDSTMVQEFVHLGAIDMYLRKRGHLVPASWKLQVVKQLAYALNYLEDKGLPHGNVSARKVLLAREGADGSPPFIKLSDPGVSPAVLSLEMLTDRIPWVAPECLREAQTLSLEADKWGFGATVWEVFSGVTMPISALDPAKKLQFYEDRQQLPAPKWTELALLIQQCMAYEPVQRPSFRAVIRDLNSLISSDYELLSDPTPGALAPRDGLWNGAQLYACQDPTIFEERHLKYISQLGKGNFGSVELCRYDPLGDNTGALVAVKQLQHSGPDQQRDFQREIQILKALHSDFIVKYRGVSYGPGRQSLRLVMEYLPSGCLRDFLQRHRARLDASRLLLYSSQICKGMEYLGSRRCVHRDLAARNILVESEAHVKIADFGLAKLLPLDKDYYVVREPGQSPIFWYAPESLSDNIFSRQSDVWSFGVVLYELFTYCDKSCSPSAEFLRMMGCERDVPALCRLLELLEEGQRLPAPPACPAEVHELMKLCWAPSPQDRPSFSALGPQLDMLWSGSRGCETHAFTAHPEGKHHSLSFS
Procedure: as §2

Btk, sequence (Q06187 whole entry): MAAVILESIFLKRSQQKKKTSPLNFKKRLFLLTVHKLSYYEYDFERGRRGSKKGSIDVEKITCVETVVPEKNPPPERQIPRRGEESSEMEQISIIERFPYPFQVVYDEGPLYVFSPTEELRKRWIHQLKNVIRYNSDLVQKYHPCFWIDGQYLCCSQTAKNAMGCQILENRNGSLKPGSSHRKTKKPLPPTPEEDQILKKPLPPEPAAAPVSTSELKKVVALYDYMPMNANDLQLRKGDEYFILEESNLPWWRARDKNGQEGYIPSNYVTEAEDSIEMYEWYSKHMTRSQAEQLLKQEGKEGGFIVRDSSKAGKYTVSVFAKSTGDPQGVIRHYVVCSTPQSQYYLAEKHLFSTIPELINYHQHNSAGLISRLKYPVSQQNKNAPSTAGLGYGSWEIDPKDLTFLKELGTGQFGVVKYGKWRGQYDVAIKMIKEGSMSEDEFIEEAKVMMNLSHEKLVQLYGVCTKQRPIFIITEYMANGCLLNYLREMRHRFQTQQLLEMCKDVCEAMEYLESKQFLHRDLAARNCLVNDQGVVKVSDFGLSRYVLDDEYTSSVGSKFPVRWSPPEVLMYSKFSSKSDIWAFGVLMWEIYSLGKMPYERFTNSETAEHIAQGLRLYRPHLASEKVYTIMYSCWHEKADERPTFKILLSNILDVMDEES
Lck, sequence (P06239 whole entry, species assumed): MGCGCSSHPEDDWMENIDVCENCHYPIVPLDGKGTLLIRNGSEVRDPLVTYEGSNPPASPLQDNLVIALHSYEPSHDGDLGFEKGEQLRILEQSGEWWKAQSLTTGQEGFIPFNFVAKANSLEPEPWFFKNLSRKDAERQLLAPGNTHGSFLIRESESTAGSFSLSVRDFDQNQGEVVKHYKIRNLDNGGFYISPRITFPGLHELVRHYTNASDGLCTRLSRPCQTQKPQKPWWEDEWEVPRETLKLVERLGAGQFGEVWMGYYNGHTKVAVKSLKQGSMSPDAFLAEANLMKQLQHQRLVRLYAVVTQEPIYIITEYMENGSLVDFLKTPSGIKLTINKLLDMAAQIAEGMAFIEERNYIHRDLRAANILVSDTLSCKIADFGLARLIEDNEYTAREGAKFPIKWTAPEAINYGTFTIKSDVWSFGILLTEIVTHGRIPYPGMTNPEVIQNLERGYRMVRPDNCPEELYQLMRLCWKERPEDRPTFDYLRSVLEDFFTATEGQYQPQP
EGFR, sequence (P00533 25-1210): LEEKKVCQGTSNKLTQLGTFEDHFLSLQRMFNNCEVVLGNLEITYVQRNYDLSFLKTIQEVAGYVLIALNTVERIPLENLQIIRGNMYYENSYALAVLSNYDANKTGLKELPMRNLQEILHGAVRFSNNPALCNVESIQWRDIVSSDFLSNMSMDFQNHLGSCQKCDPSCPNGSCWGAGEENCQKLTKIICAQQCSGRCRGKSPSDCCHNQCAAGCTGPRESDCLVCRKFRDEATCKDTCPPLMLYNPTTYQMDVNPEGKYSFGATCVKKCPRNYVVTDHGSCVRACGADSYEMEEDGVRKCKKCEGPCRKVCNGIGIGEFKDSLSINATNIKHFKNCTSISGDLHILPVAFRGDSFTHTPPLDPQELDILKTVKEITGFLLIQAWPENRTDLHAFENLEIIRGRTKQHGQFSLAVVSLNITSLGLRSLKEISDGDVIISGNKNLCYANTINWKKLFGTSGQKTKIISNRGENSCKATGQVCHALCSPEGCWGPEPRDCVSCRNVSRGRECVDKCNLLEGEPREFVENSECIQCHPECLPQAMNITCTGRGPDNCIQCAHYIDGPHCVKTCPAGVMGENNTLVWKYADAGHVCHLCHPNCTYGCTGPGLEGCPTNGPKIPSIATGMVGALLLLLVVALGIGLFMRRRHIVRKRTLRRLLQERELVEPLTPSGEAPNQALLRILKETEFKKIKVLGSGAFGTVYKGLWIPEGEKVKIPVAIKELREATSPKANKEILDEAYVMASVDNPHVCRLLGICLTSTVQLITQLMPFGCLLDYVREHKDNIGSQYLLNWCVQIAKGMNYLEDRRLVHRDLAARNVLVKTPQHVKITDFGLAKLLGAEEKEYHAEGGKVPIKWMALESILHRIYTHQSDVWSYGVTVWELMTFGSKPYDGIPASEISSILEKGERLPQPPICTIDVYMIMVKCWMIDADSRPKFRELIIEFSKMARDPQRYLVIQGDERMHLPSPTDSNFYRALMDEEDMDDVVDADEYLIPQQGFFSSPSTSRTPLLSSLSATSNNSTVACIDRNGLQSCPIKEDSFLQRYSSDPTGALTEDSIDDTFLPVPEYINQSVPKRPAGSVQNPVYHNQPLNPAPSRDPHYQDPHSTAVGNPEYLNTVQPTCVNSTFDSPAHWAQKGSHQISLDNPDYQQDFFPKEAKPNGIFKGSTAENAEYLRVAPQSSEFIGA

Compound | IC50 (Btk) [nM] | IC50 (Lck) [nM] | IC50 (EGFR) [nM] | IC50 (JAK3) [nM]
C=CC(=O)N1CCC[C@@H](Nc2n[nH]c3nccc(Oc4ccc(C(=O)Nc5nc6ccccc6s5)cc4)c23)C1 [compound 162] | < 100 | 100 to 1000 | < 100 | < 100
Cc1cc(Oc2ccccc2)ccc1Oc1ccnc2[nH]nc(N[C@@H]3CCCN(C(=O)/C=C/CN(C)C4CC4)C3)c12 [compound 169] | < 100 | < 100 | 100 to 1000 | 1000 to 10000
CN(C)CCCC(=O)N1CCC[C@@H](Nc2n[nH]c3nccc(Oc4ccc(C(=O)Nc5nc6ccccc6s5)cc4)c23)C1 [compound 172] | < 100 | < 100 | 100 to 1000 | < 100
CC#CC(=O)N1CCC[C@@H](Nc2n[nH]c3nccc(Oc4ccc(C(=O)Nc5nc(C)c(C)s5)cc4)c23)C1 [compound 175] | < 100 | 100 to 1000 | > 10000 | > 10000
CCNC(=O)N1CCC[C@@H](Nc2n[nH]c3nccc(Oc4ccc(C(=O)Nc5nc6ccccc6s5)cc4)c23)C1 [compound 176] | < 100 | 100 to 1000 | > 10000 | 100 to 1000
CC#CC(=O)N1CCC[C@@H](Nc2n[nH]c3nccc(Oc4ccc(C(=O)Nc5ncc(CC)s5)cc4)c23)C1 [compound 177] | < 100 | 100 to 1000 | 1000 to 10000 | 1000 to 10000
CC#CC(=O)N1CC[C@@H](Nc2n[nH]c3nccc(Oc4ccc(C(=O)Nc5ncc(C)s5)cc4)c23)C1 [compound 181] | < 100 | 1000 to 10000 | 1000 to 10000 | > 10000
CC#CC(=O)N1CCC[C@@H](Nc2n[nH]c3nccc(Oc4ccc(C(=O)Nc5nc6ccccc6s5)cc4)c23)C1 [compound 183] | < 100 | 100 to 1000 | > 10000 | 100 to 1000

Second part, the compound after the results:

IC50 (Btk) [nM] | IC50 (Lck) [nM] | IC50 (EGFR) [nM] | IC50 (JAK3) [nM] | Compound
< 100 | > 10000 | 1000 to 10000 | 100 to 1000 | C=CC(=O)N1CCC[C@@H](Nc2n[nH]c3nccc(Oc4ccc(C(=O)Nc5cc(C)n(C)n5)cc4)c23)C1 [compound 159]
< 100 | < 100 | 100 to 1000 | > 10000 | CN(C)CCCC(=O)N1CCC[C@@H](Nc2n[nH]c3nccc(Oc4ccc(C(=O)Nc5cc(C(F)(F)F)ccn5)cc4)c23)C1 [compound 161]
< 100 | 1000 to 10000 | 1000 to 10000 | 1000 to 10000 | Cc1nc(NC(=O)c2ccc(Oc3ccnc4[nH]nc(N[C@@H]5CCCN(C(=O)/C=C/CN(C)C6CC6)C5)c34)cc2)sc1C [compound 164]
100 to 1000 | > 10000 | > 10000 | > 10000 | Cc1cc(NC(=O)c2ccc(Oc3ccnc4[nH]nc(N[C@@H]5CCCN(C(=O)/C=C/CN(C)C6CC6)C5)c34)cc2)nn1C [compound 165]
< 100 | 100 to 1000 | 1000 to 10000 | 1000 to 10000 | CN(C/C=C/C(=O)N1CCC[C@@H](Nc2n[nH]c3nccc(Oc4ccc(C(=O)Nc5nc6ccccc6s5)cc4)c23)C1)C1CC1 [compound 167]
< 100 | 100 to 1000 | 1000 to 10000 | > 10000 | O=C(Nc1cc(C(F)(F)F)ccn1)c1ccc(Oc2ccnc3[nH]nc(N[C@@H]4CCCN(C(=O)C5CC5)C4)c23)cc1 [compound 173]
< 100 | > 10000 | 1000 to 10000 | 100 to 1000 | C=CC(=O)N1CCC[C@@H](Nc2n[nH]c3nccc(Oc4ccc(C(=O)Nc5cc(C)on5)cc4)c23)C1 [compound 178]
< 100 | 100 to 1000 | < 100 | < 100 | C=CC(=O)N1CCC[C@@H](Nc2n[nH]c3nccc(Oc4ccc(C(=O)Nc5ncc(CC)s5)cc4)c23)C1 [compound 179]

Reference: patent US9580416B2, “Inhibitors of Bruton's tyrosine kinase” (PHARMACYCLICS LLC, priority 2014, dated 2017)
